The results in this text go back to patent US8822449B2, “Substituted aminoindanes and analogs thereof, and the pharmaceutical use thereof” (Sanofi, priority 2008, dated 2014).

In the assay the target is T1, sodium-proton exchanger of subtype 3 (NHE3) (Homo sapiens, UniProt P48764).
T1 construct: expressed in transfected cells
T1 sequence (P48764 26-834): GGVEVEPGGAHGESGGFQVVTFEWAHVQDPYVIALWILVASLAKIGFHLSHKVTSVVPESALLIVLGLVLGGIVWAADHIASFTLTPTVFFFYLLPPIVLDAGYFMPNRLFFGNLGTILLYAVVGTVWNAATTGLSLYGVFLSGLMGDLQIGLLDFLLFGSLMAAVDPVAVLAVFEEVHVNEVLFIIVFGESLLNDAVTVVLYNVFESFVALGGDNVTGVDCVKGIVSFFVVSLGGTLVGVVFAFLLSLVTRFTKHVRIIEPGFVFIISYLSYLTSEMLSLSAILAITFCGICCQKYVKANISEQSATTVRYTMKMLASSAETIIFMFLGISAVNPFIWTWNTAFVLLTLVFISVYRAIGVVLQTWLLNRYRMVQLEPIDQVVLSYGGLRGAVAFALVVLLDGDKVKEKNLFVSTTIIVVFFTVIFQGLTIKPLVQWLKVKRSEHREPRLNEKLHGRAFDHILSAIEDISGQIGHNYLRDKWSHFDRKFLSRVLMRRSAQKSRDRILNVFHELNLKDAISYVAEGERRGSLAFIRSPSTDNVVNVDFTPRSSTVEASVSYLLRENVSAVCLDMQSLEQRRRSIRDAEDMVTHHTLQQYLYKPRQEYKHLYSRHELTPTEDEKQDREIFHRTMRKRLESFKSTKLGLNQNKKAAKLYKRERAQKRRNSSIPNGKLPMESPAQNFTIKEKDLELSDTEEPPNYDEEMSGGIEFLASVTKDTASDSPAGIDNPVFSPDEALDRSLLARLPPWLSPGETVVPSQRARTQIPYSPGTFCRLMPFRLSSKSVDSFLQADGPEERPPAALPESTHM
The experiment in a line: Recovery of intracellular pH (pHi) after acidification in LAP1 cells stably expressing NHE3 (BCECF fluorescence, FLIPR). It counts as cell-based. The following applies: LAP1 cells stably expressing NHE3; pH recovery after acidification; range 1 is % inhibition at 10 μM; read-out: Activity range (inhibitory effect on NHE3).

Structures are written as SMILES.

For the compound `N[C@H]1CCCN([C@H]2CCc3ccccc3[C@@H]2Oc2ccc(N3CCNCC3)cc2)C1` (racemic) [Example 184, (S)-1-[rac-trans-(1,2)-1-(4-piperazin-1-ylphenoxy)-1,2,3,4-tetrahydronaphthalen-2-yl]piperidin-3-ylamine], the inhibition at 10 µM is 20 to 50%.

As for `CS(=O)(=O)c1ccc(O[C@H]2c3cc(Cl)cc(Cl)c3C[C@@H]2N2CCCNCC2)cc1` [Example 298, 1-[trans-(1S,2S)-4,6-dichloro-1-(4-methanesulfonylphenoxy)indan-2-yl]-[1,4]diazepane], the IC50 is less than 1000 nM.

In the case of `CS(=O)(=O)c1ccc(O[C@H]2c3cc(Cl)cc(Cl)c3C[C@@H]2N2CC[C@@H](C#N)C2)cc1` [Example 105, (R)-1-[trans-(1S,2S)-4,6-dichloro-1-(4-methanesulfonylphenoxy)indan-2-yl]pyrrolidine-3-carbonitrile], the IC50 lay within 1000 to 10000 nM.

Consider `Cn1ccn(-c2ccc(F)c(O[C@H]3c4cc(Cl)cc(F)c4C[C@@H]3N3CC[C@@H](O)C3)c2)c1=O` [Example 318, 1-{3-[(1S,2S)-6-chloro-4-fluoro-2-((R)-3-hydroxypyrrolidin-1-yl)indan-1-yloxy]-4-fluorophenyl}-3-methyl-1,3-dihydroimidazol-2-one], for which the IC50 is less than 1000 nM.

Consider `N#Cc1c(F)cccc1O[C@H]1c2ccccc2CC[C@@H]1N1CCC[C@H](N)C1` (racemic) [Example 372, 2-[rac-trans-(1,2)-2-((S)-3-aminopiperidin-1-yl)-1,2,3,4-tetrahydronaphthalen-1-yloxy]-6-fluorobenzonitrile], for which the inhibition at 10 µM is 20 to 50%.

In the case of `NCC1CCN([C@@H]2Cc3ccccc3[C@H]2Oc2ccc(N3CCNCC3)cc2)CC1` (racemic) [Example 619, C-{1-[rac-trans-(1,2)-1-(4-piperazin-1-ylphenoxy)indan-2-yl]piperidin-4-yl}methylamine], the IC50 lay within 1000 to 10000 nM.

Consider `N[C@@H]1CCCN([C@H]2CCc3ccccc3[C@@H]2Oc2ccc(F)cc2-c2cc[nH]n2)C1` (racemic) [Example 120, (R)-1-{rac-trans-(1,2)-1-[4-fluoro-2-(1H-pyrazol-3-yl)phenoxy]-1,2,3,4-tetrahydronaphthalen-2-yl}piperidin-3-ylamine], for which the IC50 is less than 1000 nM.

With `N[C@@H]1CCCN([C@H]2Cc3c(Cl)cc(Cl)cc3[C@@H]2Oc2ccc(S(N)(=O)=O)cc2)C1` [Example 480, 4-[(1S,2S)-2-((R)-3-aminopiperidin-1-yl)-4,6-dichloroindan-1-yloxy]benzenesulfonamide], the IC50 is less than 1000 nM.

With `O=c1ocnn1-c1ccc(O[C@H]2c3cc(Cl)cc(Cl)c3C[C@@H]2N2CC[C@@H](O)C2)cc1` [Example 735, 3-{4-[trans-(1S,2S)-4,6-Dichloro-2-((R)-3-hydroxy-pyrrolidin-1-yl)-indan-1-yloxy]-phenyl}-3H-[1,3,4]oxadiazol-2-one], the IC50 was in the range of 1000 to 10000 nM.

`CCN(CC)[C@@H]1Cc2ccccc2[C@H]1Oc1cccc(NC(N)=O)c1` (racemic) [Example 212, [3-(rac-trans-(1,2)-2-diethylaminoindan-1-yloxy)phenyl]-urea]: the IC50 was in the range of 1000 to 10000 nM.

For `CCNS(=O)(=O)c1ccc(O[C@@H]2c3ccccc3C[C@H]2N2CCCC2)cc1` (racemic) [Example 700, N-ethyl-4-(rac-trans-(1,2)-2-pyrrolidin-1-ylindan-1-yloxy)benzenesulfonamide], the IC50 is less than 1000 nM.

Take `CS(=O)(=O)c1ccc(O[C@H]2c3cc(Cl)cc(Cl)c3C[C@@H]2N2CC[C@@H](N)C2)cc1` [Example 104, (R)-1-[trans-(1S,2S)-4,6-dichloro-1-(4-methanesulfonylphenoxy)indan-2-yl]pyrrolidin-3-ylamine]: the IC50 is less than 1000 nM.

Turning to `c1ccc2c(c1)C[C@H](N1CCCC1)[C@H]2Oc1ccc(-c2nccs2)cc1` (racemic) [Example 364, 2-[4-(rac-trans-(1,2)-2-pyrrolidin-1-ylindan-1-yloxy)phenyl]thiazole], the IC50 fell in the range of 1000 to 10000 nM.

In the case of `NC(=O)c1cccc(O[C@@H]2c3ccccc3C[C@H]2N2C[C@H]3CNC[C@H]3C2)c1` (racemic) [Example 410, 3-[rac-trans-(1,2)-2-(hexahydropyrrolo[3,4-c]pyrrol-2-yl)indan-1-yloxy]benzamide], the IC50 is 1000 to 10000 nM.

In the case of `N[C@H]1CCCN([C@H]2CCc3ccccc3[C@@H]2Oc2ccc(F)cc2-c2cc[nH]n2)C1` (racemic) [Example 205, (S)-1-{rac-trans-(1,2)-1-[4-fluoro-2-(1H-pyrazol-3-yl)phenoxy]-1,2,3,4-tetrahydronaphthalen-2-yl}piperidin-3-ylamine], the inhibition at 10 µM fell in the range of 20 to 50%.

With `CC(=O)Nc1cccc(O[C@@H]2c3ccccc3C[C@H]2N2CCC[C@@H](N)C2)c1` (racemic) [Example 679, N-{3-[rac-trans-(1,2)-2-((R)-3-aminopiperidin-1-yl)indan-1-yloxy]phenyl}acetamide], the IC50 is less than 1000 nM.

Consider `N[C@H]1CCCN([C@H]2CCc3ccccc3[C@@H]2Oc2cccc(Cl)c2)C1` (racemic) [Example 165, (S)-1-[rac-trans-(1,2)-1-(3-chlorophenoxy)-1,2,3,4-tetrahydronaphthalen-2-yl]piperidin-3-ylamine], for which the inhibition at 10 µM lay in the range of 20 to 50%.

Take `c1ccc2c(c1)C[C@@H](N1C[C@H]3CNC[C@H]3C1)[C@@H]2Oc1cccc2[nH]ccc12` (racemic) [Example 504, 4-[rac-trans-(1,2)-2-(Hexahydropyrrolo[3,4-c]pyrrol-2-yl)indan-1-yloxy]-1H-indole]: the IC50 was 1000 to 10000 nM.

Turning to `CS(=O)(=O)c1ccc(O[C@H]2c3ccccc3C[C@@H]2NCc2ccccc2)cc1` (racemic) [Example 597, benzyl[1-(4-methanesulfonylphenoxy)indan-2-yl]amine], the inhibition at 10 µM fell in the range of 20 to 50%.

As to `Cn1ccn(-c2ccc(O[C@H]3c4cc(Cl)cc(F)c4C[C@@H]3NC3CCCC3)c(F)c2)c1=O` [Example 755, 1-[4-(trans-(1S,2S)-6-Chloro-2-cyclopentylamino-4-fluoro-indan-1-yloxy)-3-fluoro-phenyl]-3-methyl-1,3-dihydro-imidazol-2-one], the IC50 was in the range of 1000 to 10000 nM.

Turning to `CN1CCN([C@H]2Cc3c(Cl)cc(Cl)cc3[C@@H]2Oc2ccc(C#N)cc2F)CC1` [Example 485, 4-[(1S,2S)-4,6-dichloro-2-(4-methylpiperazin-1-yl)indan-1-yloxy]-3-fluorobenzonitrile], the inhibition at 10 µM was 20 to 50%.

Regarding `COCCN1CCCN([C@H]2Cc3c(Cl)cc(Cl)cc3[C@@H]2Oc2ccc(S(C)(=O)=O)cc2)CC1` [Example 304, 1-[trans-(1S,2S)-4,6-dichloro-1-(4-methanesulfonylphenoxy)indan-2-yl]-4-(2-methoxyethyl)-[1,4]diazepane], the IC50 was less than 1000 nM.

In the case of `Cc1nnc(C)n1-c1ccc(O[C@H]2c3cc(Cl)cc(Cl)c3C[C@@H]2N2CCCNCC2)cc1` [Example 347, 1-{trans-(1S,2S)-4,6-dichloro-1-[4-(3,5-dimethyl-[1,2,4]triazol-4-yl)phenoxy]indan-2-yl}-[1,4]diazepane], the IC50 is less than 1000 nM.

With `NC1CCN([C@@H]2Cc3ccccc3[C@H]2Oc2cccc(N3CCNCC3)c2)C1` (mixture of isomers) [Example 270, 1-[rac-trans-(1,2)-1-(3-piperazin-1-ylphenoxy)indan-2-yl]pyrrolidin-3-ylamine], the IC50 fell in the range of 1000 to 10000 nM.

In the case of `CS(=O)(=O)c1ccc(O[C@H]2c3cc(F)ccc3C[C@@H]2N2CCN(CC#N)CC2)cc1` (racemic) [Example 242, {4-[rac-trans-(1,2)-6-fluoro-1-(4-methanesulfonylphenoxy)indan-2-yl]piperazin-1-yl}acetonitrile], the inhibition at 10 µM lay in the range of 20 to 50%.

For the compound `Cc1nnc(C)n1-c1ccc(O[C@H]2c3cc(Cl)ccc3C[C@@H]2N2CC[C@@H](O)C2)cc1` [Example 145, (R)-1-{trans-(1S,2S)-6-chloro-1-[4-(3,5-dimethyl-[1,2,4]triazol-4-yl)phenoxy]indan-2-yl}pyrrolidin-3-ol], the IC50 was less than 1000 nM.

Turning to `Cc1cc(O[C@@H]2c3ccccc3C[C@H]2N2CCC(CN)C2)cc(C)c1C#N` (mixture of isomers) [Example 539, 4-[rac-trans-(1,2)-2-(3-aminomethylpyrrolidin-1-yl)indan-1-yloxy]-2,6-dimethylbenzonitrile], the IC50 was in the range of 1000 to 10000 nM.

On to `Cc1nnc(C)n1-c1ccc(C(=O)O[C@H]2c3cc(Cl)cc(Cl)c3C[C@@H]2N2CC[C@@H](O)C2)c(Cl)c1` [Example 710, 2-Chloro-4-(3,5-dimethyl-[1,2,4]triazol-4-yl)-benzoic acid trans-(1S,2S)-4,6-dichloro-2-((R)-3-hydroxy-pyrrolidin-1-yl)-indan-1-yl ester], for which the IC50 was in the range of 1000 to 10000 nM.

As for `COCCc1ccc(O[C@H]2c3ccccc3CC[C@@H]2N2CCC[C@H](N)C2)cc1` (racemic) [Example 202, (S)-1-{rac-trans-(1,2)-1-[4-(2-methoxyethyl)phenoxy]-1,2,3,4-tetrahydronaphthalen-2-yl}piperidin-3-ylamine], the inhibition at 10 µM is 20 to 50%.
